The results in this text go back to patent US8329617B2, “Compositions and methods for synergistic manipulation of plant and insect defenses” (Plant Bioscience Limited, priority 2007, dated 2012).

Molecules are shown by their SMILES.

The test has as its system Myzus persicae, US1L. Kind of test: Bioassay: M. persicae protein on four pepper plants treated with cis-jasmone and PBO (1, 5 or 10 adults per plant). Type of test: in vivo. The settings on record: for Av. Total Insect Protein μg: Bioassay, M. persicae (US1L), average of weeks 1 to 3; for μg (Av) Total Protein (M. persicae): four pepper plants, 7 days. How it is done: In all bioassay experiments the control plants were sprayed with deionised water. Initially seven treatments were used (Table 1) to test all chemical variables. All treatments were applied hydraulically with a spray simulator after which the plants were separated according to treatment (with cis-jasmone controls being separated) and left for 2 hours prior to insect application.
Analysis of protein in each treatment was conducted using Bradford Reagent: the data were analysed using the computer programme ‘GraFit’ (Erithacus software, Berkeley). To calculate the calibration curve a single logarithmic curve was used with regression analysis taking the values of the treatment wells (averages of the three readings taken: technical replicates). […]
To investigate developmental/fecundity effects of cis-jasmone+/−PBO E on Myzus persicae when applied to sweet peppers, one adult was added to the plants. Aphids were brushed from all plants and each leaf checked individually to ensure none remained. The aphid mass for each treatment was assessed for total protein (total from all four plants in the treatment) using Bradford reagent. The amount of aphid protein present on the plants 7 days after treatment was measured.
Myzus persicae was applied to sweet peppers at the rate of five adults were added per plant. Aphids were brushed from all plants and each leaf checked individually to ensure none remained. The aphid mass for each treatment was assessed for total protein (total from all four plants in the treatment) using Bradford reagent. The amount of aphid protein present on the plants 7 days after treatment was measured (for further information see Example 3).
Myzus persicae were applied to sweet peppers at the rate of ten adults per plant. Aphids were brushed from all plants and each leaf checked individually to ensure none remained. The aphid mass for each treatment was assessed for total protein (total from all four plants in the treatment) using Bradford reagent. The amount of aphid protein present on the plants 7 days after treatment was measured (for further information see Example 3).

Regarding `CCCCOCCOCCOCc1cc2c(cc1CCC)OCO2` [PBO, 2-(2-butoxyethoxy)ethyl 6-propylpiperonyl ether], the “Av. Total Insect Protein μg” value was found to be 10.710 µg (1 adult/plant), 21.500 µg (5 adults/plant) and 35.200 µg (10 adults/plant). Moreover, where the note is “M. persicae on pepper, five adults per plant”, the “effect of addition of PBO to cis-jasmone on reduction of insect protein (in words)” value is “potentiates the effect of cis-jasmone”. The “reduction in total aphid protein (in words)” value (M. persicae on pepper, small scale assays, 10, 5 or 1 adult aphid per plant) was “no significant reduction”. The “μg (Av) Total Protein (M. persicae)” value runs as follows: (five adult apterous aphids per plant, week 1) 23.60 µg; (five adult apterous aphids per plant, week 2) 17.29 µg; (five adult apterous aphids per plant, week 3) 23.60 µg; (one adult apterous aphid per plant, week 1) 13.64 µg; (one adult apterous aphid per plant, week 2) 8.50 µg; (one adult apterous aphid per plant, week 3) 10.01 µg. The “μg (Av) Total Protein (M. persicae)” value is 38.91 µg (ten adult apterous aphids per plant, week 1); 33.2 µg (ten adult apterous aphids per plant, week 2); 33.5 µg (ten adult apterous aphids per plant, week 3).
